Experimental data taken from patent publication US11607419B2, “Inhibitors of RAC1 and uses thereof for inducing bronchodilatation” (INSTITUT NATIONAL DE LA SANTE ET DE LA RECHERCHE MEDICALE …, priority 2017, dated 2023).
Entries after “also recorded” stand apart in the source; their conditions may differ.

Key:
RAC1 [1] = target: T1, RAC1 (Homo sapiens, UniProt P63000)
[2] = target: T2, Rac-GTP (Rac1 activity) in NIH3T3 cells (Mus musculus, UniProt P63001); assay: Rac activation: active Rac immunoprecipitation and immunoblot of Rac-GTP in fibroblasts stimulated by a Rac activator; assay type: cell-based; conditions: pre-incubated 1 h
T2 construct: endogenous in cells; host or cells: NIH3T3
Description: (§1) Cell culture, transfection and actin staining. NIH3T3 cells grew up in DMEM (Gibco; Invitrogen) containing 10% foetal bovine serum, 100 units/mL penicillin and 100 μg/mL streptomycin at 37° C. and 5% CO2. The culture medium was changed every 72 hours.
Analysis of Rac1 activity. In NIH3T3 cells lysates, Rac1 activity was evaluated by active Rac immunoprecipitation using anti-Rac-GTP antibody (26903, NewEast Biosciences). The precipitated active Rac was subjected to SDS-PAGE and detected by immunoblot with anti-Rac1 antibody (BD biosciences).

Rab35 = target: T3, Rab35 (Homo sapiens, UniProt Q15286); assay: Nucleotide exchange assay, Rab35; assay type: biochemical; conditions: 10 μM
T3 construct: Full-length human small GTPases carrying a 6-histidine tag fused to their C-terminus; 6-histidine tag (C); made in house; host or cells: E. coli
T3 sequence (Q15286 whole entry, the tested form may be a part): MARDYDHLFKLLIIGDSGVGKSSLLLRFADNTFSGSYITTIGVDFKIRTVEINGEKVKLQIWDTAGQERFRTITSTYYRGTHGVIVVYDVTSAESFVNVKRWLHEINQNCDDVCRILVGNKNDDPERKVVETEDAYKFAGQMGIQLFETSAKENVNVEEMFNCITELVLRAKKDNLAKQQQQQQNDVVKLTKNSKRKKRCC
Description: (§2) Nucleotide exchange assays. Full-length human small GTPases carrying a 6-histidine tag fused to their C-terminus were expressed in E. coli and purified to homogeneity. Small GTPases were loaded with GDP or N-methylanthraniloyl-GDP (GDP/mant-GDP, JenaBiosciences) before nucleotide exchange kinetics experiments.
(§3) Nucleotide exchange kinetics were monitored by fluorescence of the mant fluorophore (λexc=360 nm, λem=440 nm) or tryptophan fluorescence (for Arf6; λexc=280 nm, λem=[…]) using a Cary Eclipse fluorimeter (Varian, Toulouse, France) at 30° C. under stirring. All kinetics assays were carried out in a buffer containing 50 mM Tris at pH 8, 300 mM NaCl, 2 mM MgCl2, 1 mM DTT and were started by addition of 100 μM N-methylanthraniloy-GTP or GTP (mant-GTP/GTP, JenaBiosciences). Nucleotide exchange kinetics were carried out at a concentration of small GTPases of 1 μM, either without GEF for spontaneous exchange, in the presence of 50 nM GEF for single kobs (s-1) determination. The kobs was determined from single-exponential fit of the fluorescence change. All experiments were carried out at least in triplicate.

RAC1 [3] = target: T1, RAC1; assay: Surface plasmon resonance on immobilised Rac1; assay type: binding
Description: Surface plasmon resonance studies. SPR immobilization was performed at 25° C. Rac1, RhoA and Cdc42 purified proteins were diluted to 5 μg/mL in Na^+ acetate buffer (pH 5.0) and injected into sensor chip CM5 (GE Healthcare) in a Biacore T200 (GE Healthcare) that was activated with NHS/EDC buffer. Approximately 5,000 response units of the purified protein were captured on the biosensor chip. Biosensor chips were blocked by an injection of […] ethanolamine (pH 8.5). […] SPR analysis was performed at 25° C. in HBSEP running buffer (5% DMSO). When indicated, EDTA (20 mM) was added in running buffer.

RAC1 [4] = target: T1, RAC1; conditions: compared with NSC23766
[5] = test system: Rac1-dependent ruffle formation in NIH3T3 cells; assay: Rac activator-induced membrane ruffling (actin staining) in fibroblasts; assay type: cell-based
Description: as §1
After treatments, fibroblasts were fixed with 4% paraformaldehyde in PBS, permeabilized in PBS 0.5% Triton X-100, and incubated with 130 μg/mL of FITC-conjugated phalloidin (Sigma) to visualize F-actin. After staining, images were captured by a fluorescence microscope (Nikon). The actin cytoskeleton organization was analyzed to observe Rac1-dependent ruffle formation.

RhoA = RhoA (Homo sapiens, UniProt P61586); assay: Nucleotide exchange assay, RhoA; assay type: biochemical; parameters: Full-length human small GTPases carrying a 6-histidine tag fused to their C-terminus; 6-histidine tag (C); made in house; host or cells: E. coli; conditions: 10 μM
RhoA, sequence (P61586 whole entry, the tested form may be a part): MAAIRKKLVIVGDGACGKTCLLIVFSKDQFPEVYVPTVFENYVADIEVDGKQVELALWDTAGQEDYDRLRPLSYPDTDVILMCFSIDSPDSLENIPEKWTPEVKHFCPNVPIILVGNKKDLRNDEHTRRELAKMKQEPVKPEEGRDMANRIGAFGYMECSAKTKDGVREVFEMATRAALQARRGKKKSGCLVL
Description: as §2, §3

Rac2 = target: T4, Rac2 (Homo sapiens, UniProt P15153); assay: Nucleotide exchange assay (mant-GTP/mant-GDP), Rac2; assay type: biochemical; conditions: 10 μM
T4 construct: Full-length human small GTPases carrying a 6-histidine tag fused to their C-terminus; 6-histidine tag (C); made in house; host or cells: E. coli
Description: as §2, §3

fibroblast adhesion = assay: Cell adhesion assay using impedance technology; assay type: cell-based; conditions: fibroblasts
Description: Cell adhesion assay using impedance technology. Cells (10000/well) were seeded in a 96 well plate microtiter xCELLigence assay plate (E-Plate) (ACEA Biosciences Inc.) and placed on the Real-time xCELLigence Cell Analyzer (Roche Applied Science) platform at 37° C. to measure the “cell index” every 5 min for a period of 6 hours. The cell index unit is defined as (Rn−Rb)/15. Rn is the cell electrode impedance of the well when it contains cells. Rb is the background impedance of the well with the media alone.

RhoG = target: T5, RhoG (Homo sapiens, UniProt P84095); assay: Nucleotide exchange assay, RhoG; assay type: biochemical; conditions: 10 μM
T5 construct: Full-length human small GTPases carrying a 6-histidine tag fused to their C-terminus; 6-histidine tag (C); made in house; host or cells: E. coli
T5 sequence (P84095 whole entry, the tested form may be a part): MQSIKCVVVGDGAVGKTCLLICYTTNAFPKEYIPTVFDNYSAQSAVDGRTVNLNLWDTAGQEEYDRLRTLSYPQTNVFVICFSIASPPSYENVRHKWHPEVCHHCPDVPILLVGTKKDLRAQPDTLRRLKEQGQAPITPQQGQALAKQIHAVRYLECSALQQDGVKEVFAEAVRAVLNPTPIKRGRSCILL
Description: as §2, §3

[6] = test system: airway hyperresponsiveness; assay: Airway responsiveness in vivo (whole-body plethysmography, methacholine); parameters: species or system mice; conditions: mouse model of allergic asthma, acute nebulization (300 μl at 5 mM) 10 min before methacholine
Description: Animals use and airways responsiveness measurement in vivo. All experimental procedures and animal care were performed in accordance with the European Community Standards on the Care and Use of Laboratory Animals and approved by the local ethics committee (Comité d'Ethique en Expérimentation Animale des Pays de Loire). Airway responsiveness was assessed in conscious, unrestrained mice using a barometric, whole-body plethysmography (EMKA Technologies) by recording respiratory pressure curves in response to inhaled methacholine (Sigma) at concentrations of 0-40 mg/ml for 1 min. Airway responsiveness was expressed in enhanced pause (Penh) units. The Penh values measured after stimulation were averaged and expressed as the fold-increase over baseline values. When required, the Rac inhibitor (2) was nebulised (300 μl at 5 mM) 10 min before methacholine challenge.

Arf6 = target: T6, Arf6 (Homo sapiens, UniProt P62330); assay: Nucleotide exchange assay, Arf6; assay type: biochemical; conditions: 10 μM
T6 construct: Full-length human small GTPases carrying a 6-histidine tag fused to their C-terminus; 6-histidine tag (C); made in house; host or cells: E. coli
T6 sequence (P62330 whole entry, the tested form may be a part): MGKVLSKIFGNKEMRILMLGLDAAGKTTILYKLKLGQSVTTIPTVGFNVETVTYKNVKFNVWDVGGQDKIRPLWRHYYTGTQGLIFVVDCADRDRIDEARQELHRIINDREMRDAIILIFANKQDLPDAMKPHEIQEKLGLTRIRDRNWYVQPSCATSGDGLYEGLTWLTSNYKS
Description: as §2, §3

RAC1 [7] = target: T1, RAC1; assay: Nucleotide exchange assay (mant-GTP/mant-GDP), Rac1; assay type: biochemical; parameters: Full-length human small GTPases carrying a 6-histidine tag fused to their C-terminus; 6-histidine tag (C); made in house; host or cells: E. coli; conditions: 10 μM
Description: as §2, §3

[8] = test system: murine bronchial rings (aSMC contraction); assay: Airways reactivity ex vivo: methacholine contraction of bronchial rings; conditions: bronchial rings from control mice, pre-incubated 1 h
Description: Airways reactivity ex vivo. Murine primary bronchi were cleaned, cut in rings and mounted on a multichannel isometric myograph in Krebs-Henseleit physiological solution (118.4 mM NaCl, 4.7 mM KCl, 2 mM CaCl2, 1.2 mM MgSO4, 1.2 mM KH2PO4, 25 mM NaHCO3 and 11 mM glucose) at 37° C. under oxygen. A pre-tension of 0.5 mN was applied. We constructed dose-response curves to methacholine (Sigma). When indicated, rings were pre-incubated 1 h before contraction with (2) (or compound A4.1). The wire myograph was connected to a digital data recorder (MacLab/4e, AD Instruments) and recordings were analyzed using LabChart v7 software (AD Instruments).

3T3 cells migration = assay: Unidirectional cell migration; assay type: cell-based
Description: Unidirectional cell migration. Cells (1000/well) were seeded in a 96 well plate with […] fibronectin stripes (CytooPlates Motility, CYTOO) in medium with 1% SVF and allowed to spread for 4 hours before capturing time-lapse images for 24 hours (image/10 minutes) on a Widefield Leica DMI 6000B drove with Metamorph software. Cells speed was measured with ImageJ software.

IC50 (RAC1 [1]): 1000 pM | Rac activation (Rac-GTP level) by a Rac activator [2]: prevented | nucleotide exchange kinetics of Rab35 (Rab35): did not alter | SPR binding to Rac1 (RAC1 [3]; 0.78-25 μM injected): binds Rac1 | SPR interaction with Rac1 nucleotide free (RAC1 [3]; EDTA in running buffer): significantly increased | Relative activity (NSC23766) (RAC1 [4]): > | melting point: 136 °C | nucleotide exchange kinetics of RhoA (RhoA): did not alter | Bmax GTP-binding on Rac2 (Rac2): decreased | nucleotide exchange kinetics of RhoG (RhoG): did not alter | nucleotide exchange kinetics of Arf6 (Arf6): did not alter | Bmax GTP-binding on Rac1 (RAC1 [7]): decreased
Compound: COc1ccc(OC)c(NS(=O)(=O)c2ccc(NC(=O)CCSc3ccc(C)cc3)cc2)c1 [Compound (2), N-(4-(N-(2,5-dimethoxyphenyl)sulfamoyl)phenyl)-3-(p-tolylthio)propanamide]
IC50 ([5]; Mus musculus, NIH3T3, fibroblasts, dose-dependent inhibition): 670 pM | efficiency of Rac activator to induce ruffle ([5]; added 1 h before Rac activation): blocks; also recorded: strongly decreased | adhesion inhibition compared with NSC23766 (fibroblast adhesion): higher inhibition | adhesion rate of the cells (fibroblast adhesion; 10 μm): decreases; also recorded: slow down | airway hyperresponsiveness (AHR) [6]: prevented | maximal contraction induced by methacholine [8]: dose-dependent reduced | migration inhibition compared with NSC23766 (3T3 cells migration): higher inhibition | migration rate of the cells (3T3 cells migration): decreases; also recorded: slow down
